US7132553B2, “Product comprising an inhibitor of the transduction of heterotrimeric G protein signals combined with an anti-hypertensive agent for therapeutic use in the treatment of arterial hypertension” (Societe de Conseils de Recherches et d'Applications …, priority 2000, dated 2006)

Columns and labels:
[1] = system: spontaneously hypertensive rats (SHR); experiment: Arterial pressure in anaesthetized spontaneously hypertensive rats (carotid catheter); format: in vivo; settings: SHR rat, single intravenous injection, verapamil 0.1 or 0.3 mg/kg, captopril 1 mg/kg; for time of return of arterial pressure to initial values after injection: G protein inhibitor 1 mg/kg; for effect on arterial pressure (in words): G protein inhibitor 1 mg/kg (FIG. 1)
Protocol: (§1) 13/14 week old male SHR rats (Charles River France) are anaesthetized using pentobarbital (Sanofi) (60 mg/kg/IP). […] After a stabilization period of 10 minutes, the product or two products simultaneously are administered and their effects are monitored for 20 minutes.
(§2) For administration purposes, 7-(2-amino-1-oxo-3-thiopropyl)-8-(cyclohexylmethyl)-2-phenyl-5,6,7,8-tetrahydro-imidazo[1,2a]pyrazine, verapamil (Sigma, USA) and captopril (Sigma, USA) can be dissolved in an aqueous solution of NaCl at 0.9%.

[2] = system: spontaneously hypertensive rats (SHR); experiment: Heart rate in anaesthetized spontaneously hypertensive rats (carotid catheter); format: in vivo; set-up: Frequency difference (Δ) (reduction in heart rate): unit not given here; settings: SHR rat; for Frequency difference (Δ) (reduction in heart rate): single product, intravenous, monitored 20 minutes; for reduction in heart rate, maximum difference (delta): baseline 328 to 371 beats per minute (FIG. 2)
Protocol: as §1, §2

SMILES: C[C@H](CS)C(=O)N1CCC[C@H]1C(=O)O [Captopril, captopril]
- time of return of arterial pressure to initial values after injection [1]: 20 min
- effect on arterial pressure (in words) [1]: immediate reduction
- Frequency difference (Δ) (reduction in heart rate) ([2]; dose 1 mg/kg): 1
- change of heart rate (in words) ([2]; single products, single intravenous injection (FIG. 2)): does not change the heart rate at all

SMILES: NC(CS)C(=O)N1CCn2cc(-c3ccccc3)nc2C1CC1CCCCC1 (centres unmarked) [Compound 2, 7-(2-amino-1-oxo-3-thiopropyl)-8-(cyclohexylmethyl)-2-phenyl-5,6,7,8-tetrahydroimidazo[1,2a]pyrazine]
- time of return of arterial pressure to initial values after injection [1]: 20 min
- effect on arterial pressure (in words) [1]: immediate reduction
- reduction in heart rate, maximum difference (delta) ([2]; 1 mg/kg intravenous): 44
- Frequency difference (Δ) (reduction in heart rate) ([2]; dose 1 mg/kg): 44

SMILES: COc1ccc(CCN(C)CCCC(C#N)(c2ccc(OC)c(OC)c2)C(C)C)cc1OC (centres unmarked) [Verapamil, verapamil]
- time of return of arterial pressure to initial values after injection [1]: 20 min
- effect on arterial pressure (in words) [1]: immediate reduction
- reduction in heart rate, maximum difference (delta) ([2]; 0.1 mg/kg intravenous): 32
- reduction in heart rate, maximum difference (delta) ([2]; 0.3 mg/kg intravenous): 56
- Frequency difference (Δ) (reduction in heart rate) ([2]; dose 0.1 mg/kg): 28
- Frequency difference (Δ) (reduction in heart rate) ([2]; dose 0.3 mg/kg): 56
